PMC5845645, “QSAR-Driven Design and Discovery of Novel Compounds With Antiplasmodial and Transmission Blocking Activities” (Frontiers in Pharmacology, 2018)
Where two headings read alike, the source gives them in different places.

How the values were obtained:
[1] = tested on: P. falciparum 3D7; test: Growth inhibition by SYBR Green I, chloroquine-sensitive strain; format: cell-based; conditions: Plasmodium falciparum, read-out: IC50 3D7
Experimental: (§1) Chloroquine-sensitive (3D7) and multidrug-resistant (W2) strains were cultured in RPMI 1640 medium supplemented with 0.05 mg/mL gentamycin, 38.4 mM HEPES, 0.2% sodium bicarbonate, and 10% O^+ human serum, as previously described in a standardized protocol ([Trager and Jensen, 1976]). Then, erythrocytes were added to the culture to obtain a 5% hematocrit, and incubated at 37°C under 5% CO2 atmosphere, with daily exchange of medium. The parasitemia was monitored daily in smears stained with Giemsa. Synchronic cultures in the ring stage were obtained by two consecutive treatments at 48 h intervals with a 5% solution of D-sorbitol ([Lambros and Vanderberg, 1979]).
(§2) Parasites synchronized at the ring stage, with 0.5% parasitemia and 2% hematocrit were distributed in each well, separately. The compounds were tested in triplicates, using 12 point of concentration, prepared in two-fold dilution (40 μM – ∼0.019 μM) over 72 h. Chloroquine and pyrimethamine were used as control. Subsequently, the in vitro susceptibility of parasite to tested drugs was measured by SYBR Green according to [Hartwig et al. (2013)]. Briefly, 100 μL of lysis buffer (20 mM Tris, 5 mM EDTA, 0.008% wt/vol saponin, 0.08% vol/vol Triton X-100, and 0.4 μL/mL of SYBR Green) were added in each well of a new black 96-well plate and 100 μL of parasite culture incubated with drugs were added. After homogenization, the plates were incubated for 1 h in the dark. Fluorescence was measured at 490 nm excitation and 540 nm emission (CLARIOstar, Labtech BMG). The IC50 was calculated by plotting the Log doses vs. Inhibition (expressed as a percentage relative to the control) in Prism 6 (GraphPad Software Inc.).

[2] = tested on: P. falciparum W2; test: Growth inhibition by SYBR Green I, multidrug-resistant strain; format: cell-based; conditions: Plasmodium falciparum, read-out: IC50 W2
Experimental: as §1, §2

[3] = molecular target: PfdUTPase; parameters: method as in earlier work; conditions: pKi = -logKi of literature Ki, ref Nguyen et al., 2005, 2006, Whittingham et al., McCarthy et al., 2009, Baragaña et al., 2011, Hampton et al., Ruda et al.; cited from earlier work
[4] = tested on: P. berghei ANKA; test: Ookinete assay (gametocyte to ookinete conversion); format: cell-based; conditions: Plasmodium berghei, 24 h, 21°C, ookinete formation relative to DMSO control
Experimental: All animal procedures were carried out in accordance to the Brazilian College of Animal Experimentation (COBEA). This research protocol was approved by the Ethics Committee of the Institute of Biomedical Sciences – University of Sao Paulo, protocol number 132/2014-CEUA. C57BL/6 mice received an intraperitoneal injection of P. berghei ANKA infected erythrocytes, and four days after infection, a mouse with parasitemia between 4 and 6% and gametocytemia > 0.4% was selected as blood donor for cardiac puncture. Four microliters of the infected blood was dispensed in 80 μl of ookinete medium ([Blagborough et al., 2012]) at 21°C with DMSO control or with 10 μM of the tested compounds. The assay was incubated at 21°C for 24 h and 2 μl of the blood at the bottom of the tubes was spread onto a glass slide, stained with Giemsa and analyzed under a direct light microscope. The total number of formed ookinetes were counted in each slide (triplicate for each condition), and inhibition was calculated in relation to the total ookinetes formed in the control condition.

[5] = parameters: method as in Hit2Lead library; conditions: calculated; ref Hit2Lead library; cited from earlier work
[6] = Cytotoxicity assay (MTT reduction); format: cell-based, monkey; conditions: monkey; COS7 cells, 72 h
Experimental: (§3) Cytotoxicity assays used COS7 cells (fibroblast-like cell lines derived from monkey kidney tissue), grown in DMEM medium supplemented with 10% fetal bovine serum and 0.05 mg/mL gentamicin in atmosphere containing 5% CO2 at 37°C. Drug cytotoxicity in COS7 cells was determined in duplicate, using 12 point of concentration, prepared in two-fold dilution (200 μM – ∼ 0.097 μM). After the incubation period (72 h), the cell viability analysis were done by the MMT reduction method (3-[4,5-dimethyl-thiazol-2-yl]-2,5-diphenyltetrazolium […] ([Mosmann, 1983]). The optical density was determined at 570 nm (CLARIOstar, Labtech BMG) and the 50% cytotoxicity concentrations (CC50) was expressed as the percent viability relative to the control. The selectivity index of the compounds was determined by the following expression:
(§4) Where COS7 CC50 corresponds to the 50% cytotoxic concentration on COS7 cells and Pf IC50 is the 50 % inhibitory concentration on P. falciparum (3D7).

[7] = tested on: COS7 cells; test: Cytotoxicity assay (MTT reduction); format: cell-based, monkey; conditions: selectivity index = COS7 CC50 / Pf IC50 (3D7)
Experimental: as §3, §4

[8] = asexual blood stage, chloroquine-sensitive 3D7, 72 h
[9] = asexual blood stage, multidrug-resistant W2, 72 h

Row | SMILES | PfdUTPase inhibition (pKi) [3] | IC50 [1, 8] | IC50 [2, 9] | further results
1 | CCN(CC)CCCC(C)Nc1ccnc2cc(Cl)ccc12 (stereo not drawn) [Chloroquine, reference compound] | – | – | – | IC50 ([1]; 3D7, 72 h): 0.011 ± 0.0006 µM; IC50 ([2]; W2, 72 h): 0.181 ± 0.027 µM
2 | O=c1ccn(C2CC(O)C(CNC(c3ccccc3)(c3ccccc3)c3ccccc3)O2)c(=O)[nH]1 (stereo not drawn) [Compound 1] | 6.70 | – | – | –
3 | O=c1ccn([C@H]2C[C@H](O)[C@@H](CNC(c3ccccc3)c3ccccc3)O2)c(=O)[nH]1 [Compound 3, 2′,5′-dideoxy-5′-[(diphenylmethyl)amino]uridine] | 6.70 | – | – | –
4 | O=C(O)CCCNC(=O)C(CCOC(c1ccccc1)(c1ccccc1)c1ccccc1)Cn1ccc(=O)[nH]c1=O (stereo not drawn) [Compound 4] | 6.70 | – | – | –
5 | N#Cc1ccc(C(OCC2OC(n3ccc(=O)[nH]c3=O)CC2O)(c2ccccc2)c2ccccc2)cc1 (stereo not drawn) [Compound 20] | 6.03 | – | – | –
6 | CC(C)(C)[Si](C)(C)OC1CC(n2ccc(=O)[nH]c2=O)OC1CNP(=O)(Oc1ccccc1)Oc1ccccc1 (stereo not drawn) [Compound 87] | 4.17 | – | – | –
7 | CC(C)(C)[Si](C)(C)OC1CC(n2ccc(=O)[nH]c2=O)OC1CO (stereo not drawn) [Compound 127] | 3.19 | – | – | –
8 | COc1ccc(C(OCC2OC3C(Oc4nc(=O)ccn43)C2O)(c2ccccc2)c2ccc(OC)cc2)cc1 (stereo not drawn) [LabMol-144] | – | 7.1 ± 2.53 µM | 4.23 ± 1.18 µM | inhibition at 10 µM [4]: 44.6 ± 2.4%; logS [5]: −5.36; CC50 at 72 h [6]: 81.7 ± 25.7 µM; SI [7]: 11.7
9 | COc1ccc2c(c1)c(/C=C/c1nc3ccccc3c(=O)n1-c1ccccc1)c(C)n2C [LabMol-145] | – | 17.1 ± 16.2 µM | 15.3 ± 3.29 µM | inhibition at 10 µM [4]: 13.2 ± 24%; logS [5]: −6.74; CC50 at 72 h [6]: 46 ± 13.4 µM; SI [7]: 2.7
10 | COc1ccc(C(OCC2OC(n3ccc(=O)[nH]c3=O)C(O)C2O)(c2ccccc2)c2ccccc2)cc1 (stereo not drawn) [LabMol-146] | – | 6.1 ± 1.95 µM | 3.2 ± 2.12 µM | inhibition at 10 µM [4]: 7.3 ± 7.3%; logS [5]: −5.04; CC50 at 72 h [6]: 52 ± 16.4 µM
11 | CCc1nc(N)nc(N)c1-c1ccc(Cl)cc1 [Pyrimethamine, reference compound] | – | 0.044 ± 0.009 µM | 14.7 ± 3.94 µM | –
